Laboratory results as given in patent US20220348885A1, “BIOLOGICALLY RELEVANT IN VITRO SCREENING OF HUMAN NEURONS” (The Board of Trustees of the Leland Stanford Junior …, priority 2016, published 2022).
“Also recorded” adds a separate entry of the source.

What was measured:
[1] = tested on: neural co-cultures consisting of primary human glial cells and a mixture of glutamatergic excitatory iN cells and GABAergic inhibitory iN cells; test: Bicuculline-induced seizure-like network activity on MEA and co-application of antiepileptic drugs (Example 7); assay type: cell-based; settings: co-application with 1 μM bicuculline, 3 doses
Description: Generation of human neural co-cultures and MEA recording settings and thresholds were as described under Example 6. […] Co-application of AEDs was performed in 3 different doses and each condition was tested in 6 technical replicates.

[2] = tested on: neural co-cultures consisting of primary glial cells and glutamatergic excitatory iN cells; test: MEA recording of neuronal network activity, pure excitatory co-culture (Example 3); assay type: cell-based, human; settings: for decrease of the frequency of total bursts / decrease of the frequency of total spikes (mean firing rate): dosed vs baseline
Description: Induced excitatory neurons were seeded at day 4 after induction by transcriptional activation of the neurogenic transcription factor NGN2, on 12-well MEA plates (Axion BioSystems) coated with matrigel. A total of 600,000 iN cells were plated per well. Primary glial cells were obtained by dissociating brains of mouse pups at postnatal day 3 with hippocampal and cerebellar structures being removed in advance. Dissociated brains were pre-cultured and passaged twice to remove primary neurons. Glial cells were then seeded directly on the plated iN cells at a density of 120,000 cells per well.
Recordings of spontaneous neuronal activity were performed at 1, 2, 3, and 4 weeks after plating for a period of 10 minutes each.
Neural co-cultures were produced as described under Example 1. […] Recordings were performed at week 4 in culture for 10 minutes for each condition including baseline measurements prior to compound application and test measurements following the addition of a single compound. Between baseline and test condition recordings, the plates were store in an incubator (37° C., 5% CO2) to readjust pH of the media. Each compound was applied to a different well in order to prevent secondary effects of previous treatments. First, the effect of the common compound solvent DMSO was tested by adding 0.1% to the neural co-culture medium. As depicted in FIG. 6A i and ii, DMSO alone increased the frequency of total spikes (mean firing rate) and the frequency of total bursts by 0.2 Hz and 0.018 Hz, respectively. Moreover, a minor increase in synchrony could be detected increasing the percentage of bursts within synchronized network activity by approximately 5%.

[3] = tested on: neural co-cultures consisting of primary glial cells and a mixture of glutamatergic excitatory iN cells and GABAergic inhibitory iN cells; test: MEA recording of neuronal network activity, mixed excitatory/inhibitory co-culture approx. 70%/30% (Example 4); assay type: cell-based, human; settings: 50 μM, excitatory/inhibitory approx. 70%/30%
Description: Induced excitatory neurons were seeded at day 4 and induced inhibitory neurons were seeded at day 6 after induction. A total of 200000 excitatory iN cells and 200000 inhibitory iN cells were plated simultaneously per well on 12-well MEA plates (Axion BioSystems) coated with matrigel. Primary glial cells were obtained as described in Example 1, and seeded directly on the plated iN cells at a density of 100000 cells per well.
Neural co-cultures were produced as described under Example 2 resulting in excitatory/inhibitory iN cell ratio of approximately 70%/30%. Recordings of neuronal activity, threshold values, and the procedure of measuring baseline and test conditions were performed as described under Example 3. Here, the effect of PTX was tested by adding a final concentration of 50 μM to the neural co-culture medium.

[4] = tested on: neural co-cultures with a stronger inhibitory component (excitatory/inhibitory iN cells 50%/50%, glial cells from human primary NSCs); test: MEA recording of neuronal network activity, mixed excitatory/inhibitory co-culture approx. 50%/50% with human glial cells (Example 4, second experiment); assay type: cell-based; settings: 50 μM, excitatory/inhibitory approx. 50%/50%, 4 weeks in culture
Description: In a second experiment, the effect of PTX on synchronized neuronal network activity in neural co-cultures with a stronger inhibitory component was assessed. For this purpose, a total of 100,000 excitatory iN cells and 300,000 inhibitory iN cells were plated simultaneously per well on 12-well MEA plates (Axion BioSystems) coated with matrigel. Glial cells were derived from human primary NSCs as described above and seeded directly on the plated iN cells at a density of 100,000 cells per well. Due to the different apoptosis rates of the two iN cells types mentioned earlier, the final ratio of excitatory/inhibitory neurons after 4 weeks in culture was approximately 50%/50%.
The effect of PTX was tested by adding a final concentration of 50 μM to the neural co-culture medium.

Nc1nnc(-c2cccc(Cl)c2Cl)c(N)n1 [lamotrigine]
mean firing rate, network burst duration, and synchrony [1]: to baseline level (solvent control), or further reduced; also recorded: dose-dependent decrease

N#Cc1cc2[nH]c(=O)c(=O)[nH]c2cc1[N+](=O)[O-] [CNQX]
occurrence of synchronized network activity ([2]; 20 μM, week 4 in culture): completely abolished
decrease of the frequency of total bursts ([2]; 20 μM, week 4 in culture): 0.005 Hz
decrease of the frequency of total spikes (mean firing rate) ([2]; 20 μM, week 4 in culture): 0.4 Hz

NC(CCCP(=O)(O)O)C(=O)O (stereo not shown) [AP5]
reduction of the average duration of bursts ([2]; 50 μM, week 4 in culture): about 30%
synchronized network activity as measured by network burst percentage ([2]; 50 μM, week 4 in culture): reduced
decrease of the frequency of total bursts ([2]; 50 μM, week 4 in culture): 0.004 Hz
decrease of the frequency of total spikes (mean firing rate) ([2]; 50 μM, week 4 in culture): 0.2 Hz

picrotoxin [PTX]
change in spike and burst frequencies and synchronized network activity ([2]; 50 μM in 0.1% DMSO, pure excitatory culture without GABAergic cells): largely corresponded to the changes observed upon application of 0.1% DMSO
increase of synchrony of network bursts [3]: ~60%
spike and burst frequencies [3]: increase
synchronized network burst pattern [4]: extended synchronized bursts with shortening inter-burst intervals

O=C1NC(=O)C(c2ccccc2)(c2ccccc2)N1 [phenytoin]
mean firing rate, network burst duration, and synchrony [1]: to baseline level (solvent control), or further reduced; also recorded: dose-dependent decrease
